Values of other authors in US20130274214A1, “METHOD FOR TREATING BLEPHARITIS” (INSPIRE PHARMACEUTICALS, INC., priority 2010, published 2013).

Tested on: meibomian gland secretions (meibum)
Conditions: daily topical administration to the ocular surface; subjects with meibomian gland dysfunction

## CC[C@H]1OC(=O)[C@H](C)[C@@H](O[C@H]2C[C@@](C)(OC)[C@@H](O)[C@H](C)O2)[C@H](C)[C@@H](O[C@@H]2O[C@H](C)C[C@H](N(C)C)[C@H]2O)[C@](C)(O)C[C@@H](C)CN(C)[C@H](C)[C@@H](O)[C@]1(C)O [azithromycin]
  physicochemical properties of the meibum: improved the physicochemical properties of the meibum towards that of normal subjects
